From US20260257998A1, “ERR MODULATORS” (University of Health Sciences and Pharmacy in St. Louis, priority 2023, published 2026)

How the values were obtained:
[1] = target: T1, ERRγ (Homo sapiens, UniProt P62508); test: ERRE luciferase reporter assay in HEK293 cells transfected with pcDNA3.1 ERRγ; type: cell-based; design: key to EC50 (ERRγ): ***<1 μM; **1-5 μM; *>5 μM; i.a. (inactive); conditions: 24 hours treatment, luciferase activity
T1 construct: expressed in transfected cells; host or cells: HEK293
T1 sequence (P62508 1-458): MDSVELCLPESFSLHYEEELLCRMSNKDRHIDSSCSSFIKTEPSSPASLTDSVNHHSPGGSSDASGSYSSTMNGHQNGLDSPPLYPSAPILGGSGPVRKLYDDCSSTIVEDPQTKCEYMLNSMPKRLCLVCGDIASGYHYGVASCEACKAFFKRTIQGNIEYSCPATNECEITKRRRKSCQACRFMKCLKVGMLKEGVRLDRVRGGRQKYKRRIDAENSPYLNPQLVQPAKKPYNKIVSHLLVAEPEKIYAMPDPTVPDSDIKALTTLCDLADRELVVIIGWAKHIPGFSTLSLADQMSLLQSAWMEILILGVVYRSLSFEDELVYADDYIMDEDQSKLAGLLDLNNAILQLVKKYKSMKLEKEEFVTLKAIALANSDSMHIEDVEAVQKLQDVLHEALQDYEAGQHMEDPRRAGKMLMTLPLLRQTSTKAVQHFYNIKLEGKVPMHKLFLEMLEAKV
Experimental: (§1) HEK293 cells were maintained in Dulbecco's modified Eagles medium (DMEM) supplemented with 10% fetal bovine serum at 37° C. under 5% CO2. […] Cells were transfected with ERRE reporter construct and pcDNA3.1 ERRα or ERRγ. Twenty-four-hours post-transfection, the cells were treated with vehicle or compound (various concentrations) for 24 hours (4 wells per dose). Luciferase activity was measured using the One-Glo Tox luciferase reporter assay system (Promega) and […] were calculated using GraphPad Prism software.

[2] = target: T2, ERRα (Homo sapiens, UniProt P11474); test: ERRE luciferase reporter assay in HEK293 cells transfected with pcDNA3.1 ERRα; type: cell-based; design: key to EC50 (ERRα): ***<1 μM; **1-5 μM; *>5 μM; i.a. (inactive); conditions: 24 hours treatment, luciferase activity
T2 construct: expressed in transfected cells; host or cells: HEK293
T2 sequence (P11474 1-423): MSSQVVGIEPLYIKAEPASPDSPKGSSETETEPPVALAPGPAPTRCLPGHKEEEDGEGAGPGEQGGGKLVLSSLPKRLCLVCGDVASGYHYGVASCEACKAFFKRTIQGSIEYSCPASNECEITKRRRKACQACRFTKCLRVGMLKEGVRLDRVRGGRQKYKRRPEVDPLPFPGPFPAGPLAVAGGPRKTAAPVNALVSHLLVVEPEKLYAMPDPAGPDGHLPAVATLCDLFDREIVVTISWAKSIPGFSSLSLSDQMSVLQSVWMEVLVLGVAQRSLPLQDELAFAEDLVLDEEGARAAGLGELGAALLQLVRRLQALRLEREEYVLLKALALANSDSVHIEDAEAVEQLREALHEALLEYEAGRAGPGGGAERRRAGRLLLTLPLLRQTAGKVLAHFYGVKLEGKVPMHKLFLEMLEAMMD
Experimental: as §1

| Compound | EC50 (ERRγ) [1] | EC50 (ERRα) [2] | EC50 [1] | EC50 [2] |
| --- | --- | --- | --- | --- |
| Oc1c(Br)cc(Br)cc1C1CC(c2cc(Br)cc(Br)c2)=NN1 (centres unmarked) [Entry 43, 2,4-Dibromo-6-(3-(3,5-dibromophenyl)-4,5-dihydro-1H-pyrazol-5-yl)phenol] | i.a. | i.a. |  |  |
| Oc1ccccc1C1CC(c2ccc(Cl)cc2Cl)=NN1 (centres unmarked) [Entry 48, 2-(3-(2,4-Dichlorophenyl)-4,5-dihydro-1H-pyrazol-5-yl)phenol] | i.a. | i.a. |  |  |
| COc1ccc(C2=NNC(c3ccccc3)C2)c(O)c1 (centres unmarked) [Entry 52, 5-Methoxy-2-(5-phenyl-4,5-dihydro-1H-pyrazol-3-yl)phenol] |  |  | < 1 µM | < 1 µM |
| COc1ccccc1C1=NNC(c2ccccc2O)C1 (centres unmarked) [Entry 53, 2-(3-(2-Methoxyphenyl)-4,5-dihydro-1H-pyrazol-5-yl)phenol] |  |  | 1 to 5 µM | 1 to 5 µM |
| COc1ccc(C2=NNC(c3cccc(Cl)c3O)C2)cc1 (centres unmarked) [Entry 58, 2-chloro-6-(3-(4-methoxyphenyl)-4,5-dihydro-1H-pyrazol-5-yl)phenol] |  |  | 1 to 5 µM | 1 to 5 µM |
| COc1ccc(C2=NNC(c3ccc(C)cc3O)C2)cc1 (centres unmarked) [Entry 59, 2-(3-(4-methoxyphenyl)-4,5-dihydro-1H-pyrazol-5-yl)-5-methylphenol] |  |  | > 5 µM | > 5 µM |
| Cc1ccc(C2CC(c3ccc(Br)cc3)=NN2)c(O)c1 (centres unmarked) [Entry 61, 2-(3-(4-bromophenyl)-4,5-dihydro-1H-pyrazol-5-yl)-5-methylphenol] |  | i.a. | > 5 µM |  |
| COc1cccc(C2=NNC(c3ccccc3O)C2)c1 (centres unmarked) [Entry 62, 2-(3-(3-methoxyphenyl)-4,5-dihydro-1H-pyrazol-5-yl)phenol] | i.a. |  |  | 1 to 5 µM |
| CC(C)c1ccc(O)c(C2CC(c3ccc(F)cc3)=NN2)c1 (centres unmarked) [Entry 63, 2-(3-(4-fluorophenyl)-4,5-dihydro-1H-pyrazol-5-yl)-4-isopropylphenol] | i.a. | i.a. |  |  |
| Cc1ccc(C2CC(c3cc(C(F)(F)F)cc(C(F)(F)F)c3)=NN2)c(O)c1 (centres unmarked) [Entry 65, 2-(3-(3,5-bis(trifluoromethyl)phenyl)-4,5-dihydro-1H-pyrazol-5-yl)-5-methylphenol] | i.a. | i.a. |  |  |
| Oc1ccc(C2CC(c3ccccc3O)=NN2)cc1 (centres unmarked) [Entry 67, 2-(5-(4-hydroxyphenyl)-4,5-dihydro-1H-pyrazol-3-yl)phenol] |  | i.a. | > 5 µM |  |
| FC(F)(F)c1cc(C2=NNC(c3ccc(Cl)cc3)C2)cc(C(F)(F)F)c1 (centres unmarked) [Entry 68, 3-(3,5-bis(trifluoromethyl)phenyl)-5-(4-chlorophenyl)-4,5-dihydro-1H-pyrazole] | i.a. | i.a. |  |  |
| Oc1ccccc1C1=NNC(c2c(O)cccc2Cl)C1 (centres unmarked) [Entry 69, 3-chloro-2-(3-(2-hydroxyphenyl)-4,5-dihydro-1H-pyrazol-5-yl)phenol] | i.a. | i.a. |  |  |
| Cc1cc(C2CC(c3ccc(C(F)(F)F)cc3)=NN2)cc(C)c1O (centres unmarked) [Entry 70, 2,6-dimethyl-4-(3-(4-(trifluoromethyl)phenyl)-4,5-dihydro-1H-pyrazol-5-yl)phenol] | i.a. | i.a. |  |  |
| Oc1ccc(C2CC(c3ccc(C(F)(F)F)cc3)=NN2)cc1Cl (centres unmarked) [Entry 71, 2-chloro-4-(3-(4-(trifluoromethyl)phenyl)-4,5-dihydro-1H-pyrazol-5-yl)phenol] | i.a. | i.a. |  |  |
| FC(F)(F)c1ccc(C2=NNC(c3ccc4ccccc4c3)C2)cc1 (centres unmarked) [Entry 72, 5-(naphthalen-2-yl)-3-(4-(trifluoromethyl)phenyl)-4,5-dihydro-1H-pyrazole] | i.a. | i.a. |  |  |
| Oc1ccc(C2CC(c3cccc(F)c3)=NN2)cc1 (centres unmarked) [Entry 77, 4-(3-(3-fluorophenyl)-4,5-dihydro-1H-pyrazol-5-yl)phenol] |  |  | > 5 µM | > 5 µM |
| Oc1cccc(C2CC(c3ccc(Br)cc3)=NN2)c1 (centres unmarked) [Entry 79, 3-(3-(4-bromophenyl)-4,5-dihydro-1H-pyrazol-5-yl)phenol] |  |  | 1 to 5 µM | 1 to 5 µM |
| Oc1ccc(C2CC(c3ccc(Br)cc3)=NN2)cc1 (centres unmarked) [Entry 80, 4-(3-(4-bromophenyl)-4,5-dihydro-1H-pyrazol-5-yl)phenol] |  |  | 1 to 5 µM | < 1 µM |
| Brc1ccc(C2=NNC(c3ccc4ccccc4c3)C2)cc1 (centres unmarked) [Entry 81, 3-(4-bromophenyl)-5-(naphthalen-2-yl)-4,5-dihydro-1H-pyrazole] | i.a. | i.a. |  |  |
| FC(F)(F)c1cccc(C2=NNC(c3ccc4ccccc4c3)C2)c1 (centres unmarked) [Entry 83, 5-(naphthalen-2-yl)-3-(3-(trifluoromethyl)phenyl)-4,5-dihydro-1H-pyrazole] | i.a. | i.a. |  |  |
| Oc1ccc(C2CC(c3ccc(F)cc3)=NN2)cc1 (centres unmarked) [Entry 85, 4-(3-(4-fluorophenyl)-4,5-dihydro-1H-pyrazol-5-yl)phenol] |  |  | > 5 µM | > 5 µM |

Second part, the compound after the results:

| EC50 (ERRγ) [1] | EC50 (ERRα) [2] | EC50 [1] | EC50 [2] | Compound |
| --- | --- | --- | --- | --- |
|  |  | 1 to 5 µM | 1 to 5 µM | Oc1c(Cl)cccc1C1CC(c2ccc(Br)cc2)=NN1 (centres unmarked) [Entry 45, 2-(3-(4-Bromophenyl)-4,5-dihydro-1H-pyrazol-5-yl)-6-chlorophenol] |
|  |  | > 5 µM | 1 to 5 µM | Oc1ccccc1C1CC(c2ccc(F)cc2)=NN1 (centres unmarked) [Entry 46, 2-(3-(4-Fluorophenyl)-4,5-dihydro-1H-pyrazol-5-yl)phenol] |
|  |  | 1 to 5 µM | > 5 µM | Oc1ccccc1C1CC(c2ccc(Cl)cc2)=NN1 (centres unmarked) [Entry 47, 2-(3-(4-Chlorophenyl)-4,5-dihydro-1H-pyrazol-5-yl)phenol] |
| i.a. | i.a. |  |  | Cc1ccc(O)c(C2CC(c3ccc(Cl)cc3Cl)=NN2)c1 (centres unmarked) [Entry 49, 2-(3-(2,4-Dichlorophenyl)-4,5-dihydro-1H-pyrazol-5-yl)-4-methylphenol] |
|  |  | 1 to 5 µM | < 1 µM | Oc1ccccc1C1=NNC(c2ccccc2)C1 (centres unmarked) [Entry 50, 2-(5-Phenyl-4,5-dihydro-1H-pyrazol-3-yl)phenol] |
|  |  | > 5 µM | 1 to 5 µM | Oc1ccccc1C1CC(c2ccccc2F)=NN1 (centres unmarked) [Entry 54, 2-(3-(2-Fluorophenyl)-4,5-dihydro-1H-pyrazol-5-yl)phenol] |
| i.a. | i.a. |  |  | COc1ccccc1C1=NNC(c2cccc(Cl)c2O)C1 (centres unmarked) [Entry 60, 2-chloro-6-(3-(2-methoxyphenyl)-4,5-dihydro-1H-pyrazol-5-yl)phenol] |
|  | i.a. | 1 to 5 µM |  | COc1cccc(C2CC(c3ccc(C(F)(F)F)cc3)=NN2)c1O (centres unmarked) [Entry 64, 2-methoxy-6-(3-(4-(trifluoromethyl)phenyl)-4,5-dihydro-1H-pyrazol-5-yl)phenol] |
|  |  | < 1 µM | < 1 µM | Oc1ccccc1C1=NNC(c2ccc(Cl)cc2)C1 (centres unmarked) [Entry 66, 2-(5-(4-chlorophenyl)-4,5-dihydro-1H-pyrazol-3-yl)phenol] |
|  |  | 1 to 5 µM | 1 to 5 µM | Oc1ccc(C2CC(c3ccc(C(F)(F)F)cc3)=NN2)cc1 (centres unmarked) [Entry 73, 4-(3-(4-(trifluoromethyl)phenyl)-4,5-dihydro-1H-pyrazol-5-yl)phenol] |
|  |  | 1 to 5 µM | 1 to 5 µM | Oc1cccc(C2CC(c3ccc(C(F)(F)F)cc3)=NN2)c1 (centres unmarked) [Entry 74, 3-(3-(4-(trifluoromethyl)phenyl)-4,5-dihydro-1H-pyrazol-5-yl)phenol] |
|  |  | 1 to 5 µM | 1 to 5 µM | FC(F)(F)c1ccc(C2=NNC(c3ccccc3)C2)cc1 (centres unmarked) [Entry 75, 5-phenyl-3-(4-(trifluoromethyl)phenyl)-4,5-dihydro-1H-pyrazole] |
| i.a. |  |  | 1 to 5 µM | Oc1cccc(C2CC(c3cccc(F)c3)=NN2)c1 (centres unmarked) [Entry 78, 3-(3-(3-fluorophenyl)-4,5-dihydro-1H-pyrazol-5-yl)phenol] |
| i.a. | i.a. |  |  | Oc1ccc(C2CC(c3cccc(C(F)(F)F)c3)=NN2)cc1 (centres unmarked) [Entry 82, 4-(3-(3-(trifluoromethyl)phenyl)-4,5-dihydro-1H-pyrazol-5-yl)phenol] |
|  |  | > 5 µM | > 5 µM | Oc1ccc(C2CC(c3cccc(Br)c3)=NN2)cc1 (centres unmarked) [Entry 84, 4-(3-(3-bromophenyl)-4,5-dihydro-1H-pyrazol-5-yl)phenol] |
